Experimental findings from patent US20200352889A1, “CYSTATHIONINE COMPOSITIONS AND METHODS OF TREATMENT FOR HEALTH CONDITIONS” (THE REGENTS OF THE UNIVERSITY OF COLORADO, A BODY CORPORATE, priority 2011, published 2020) are described below.

Residues, ends and D or L forms follow the SMILES beside them. *: point of attachment. Cbz = O=C(OCc1ccccc1)*; CH2F = FC*

Data set [1] relates to HepG2 cells. In words: Tunicamycin-induced cell death, LDH release, HepG2 cells. It is filed as cell-based, human. The conditions noted are these: data not shown. The protocol: Cells were seeded in triplicate at ˜75% confluence and pre-treated with either PPG) (5 mM), Cystathionine (1 mM) or with just complete media (DMEM, 10% FBS) as a control. After 24 hr pre-treatment, cells looked normal, with minimal floating cells. Fresh media with 1% FBS was then added to each well, the cells were further treated with Tm (either 5 or 10 ug)/ml. After 18 hr. treatment with Tunicamycin, cells were photographed under phase-contrast with a Zeiss Axiovert 25 microscope for evidence of dead floating cells. Cells from the group treated solely with tunicamycin became strikingly hyper-refringent, detached from the substratum and floated in the media. […] To further evaluate a role for cystathionine in resisting the induction of cell death by tunicamycin, cell lysis was quantified by assaying lactate dehydrogenase (LDH) release. The enzyme activity was determined spectrophotometrically and the amount of enzyme leak was expressed as a percentage of the LDH activity observed in untreated control cells. […]
Cells were seeded in triplicate at ˜75% confluence and pre-treated with either PPG) (5 mM), Cystathionine (1 mM) or with just complete media (DMEM, 10% FBS) as a control. […] To further evaluate a role for cystathionine in resisting the induction of cell death by tunicamycin, cell lysis was quantified by assaying lactate dehydrogenase (LDH) release. […]
On the technique in general: Release of lactate dehydrogenase indicates damage to the cell membrane.

Data set [2] is described as follows: Urinary excretion of cystathionine in mice. It is filed as in vivo, mouse.
The test system of the next data set is Grp78, Grp94, GADD153. In words: Northern and Western blotting of UPR induction in 293AD cells. It is filed as cell-based, human. As for the experimental part:
To further assess the effect of cystathionine upon induction of the UPR and GADD153 by ER stress Northern and Western blotting experiments were performed.
Immunoblot analysis of total cell lysates was performed as described previously (4,14). Briefly, following incubation with the appropriate primary and horseradish peroxidase-conjugated secondary antibodies (Affinity Biologicals, Ancaster, ON, Canada) membranes were developed using the Renaissance® Western Blot Chemiluminescence Reagent Kit, (Perkin Elmer, Woodbridge, ON, Canada). Proteins were transferred on a nitrocellulose membrane, and probed with anti-KDEL monoclonal antibody, which recognizes Hsp70, GRP78 and GRP94 that was purchased from Stressgen Biotechnologies (SPA-827) or anti GADD153 (Santa Cruz Biotech #SC-7351). Anti-β-Actin monoclonal antibody (Sigma) was used as a loading control.
Total RNA was isolated from 293AD cells using the RNeasy® total RNA kit (Qiagen, Santa Clarita, Calif.) and resuspended in diethylpyrocarbonate (DEPC)-treated water. Quantification and purity of the RNA was assessed by A260/A280 absorption, and RNA samples with ratios greater than 1.6 were stored at […] for further analysis. Total RNA (10 μg/lane) was fractionated on 2.2 mol/L formaldehyde/1.2% agarose gels and transferred overnight onto Zeta-Probe® GT nylon membranes (Bio-Rad, Toronto, Canada) in 10×SSC. The RNA was cross-linked to the membrane using a UV crosslinker (PDI Bioscience, Toronto, Canada) before hybridization. Specific probes were generated by labeling cDNA fragments with [−32P]dCTP (NEN) using a random primed DNA labeling kit (Boehringer Mannheim, Laval, Canada). The cDNA probe for GADD153 (no. AA627477) was obtained from Genome Systems (St Louis, Mo.). The cDNA probe used for GRP78 is a full length cDNA clone that has been described previously (4). After overnight hybridization at 43° C., the membranes were washed as described by the manufacturer, exposed to x-ray film, and subjected to autoradiography.

Data set [3] concerns HepG2 cells. In words: Tunicamycin or thapsagargin induced cell death in HepG2 cells, comparison with Z-VAD-FMK. It is filed as cell-based, human. To be noted: p>0.05 for Z-VAD-FMK.
In a further data set the test system is 293AD cells. Put plainly: Tunicamycin-induced cell death, LDH release and phase-contrast, 293AD cells. It is filed as cell-based, human. The protocol: Cells were seeded in triplicate at ˜75% confluence and pre-treated with either PPG) (5 mM), Cystathionine (1 mM) or with just complete media (DMEM, 10% FBS) as a control. After 24 hr pre-treatment, cells looked normal, with minimal floating cells. Fresh media with 1% FBS was then added to each well, the cells were further treated with Tm (either 5 or 10 ug)/ml. After 18 hr. treatment with Tunicamycin, cells were photographed under phase-contrast with a Zeiss Axiovert 25 microscope for evidence of dead floating cells. Cells from the group treated solely with tunicamycin became strikingly hyper-refringent, detached from the substratum and floated in the media. […] To further evaluate a role for cystathionine in resisting the induction of cell death by tunicamycin, cell lysis was quantified by assaying lactate dehydrogenase (LDH) release. The enzyme activity was determined spectrophotometrically and the amount of enzyme leak was expressed as a percentage of the LDH activity observed in untreated control cells.
HepG2, 293AD and a23 cells were seeded in triplicate at ˜75% confluence and were pre-treated with either propargylglycine (PPG) (5 mM) or cystathionine (5 mM) in complete media (DMEM, 10% FBS). After 24 hours, fresh media with 1% FBS was added to each well. Cells were then further treated with tunicamycin (either 5 or 10 ug/ml) for 18 hr treatment. Cells were subsequently photographed under phase-contrast with a Zeiss Axiovert 25 microscope for evidence of dead floating cells. To quantify cell death the media supernatant was collected for LDH release assay using a kit from Roche Applied Science (Cat.No.11 644 793 001) according to the manufacturer's standard protocol where cytotoxicity (%)=((experimental value-low control/(high control-low control))×100.
Cells were seeded in triplicate at ˜75% confluence and pre-treated with either PPG) (5 mM), Cystathionine (1 mM) or with just complete media (DMEM, 10% FBS) as a control. After 24 hr. pre-treatment, cells looked normal, with minimal floating cells. Fresh media with 1% FBS was then added to each well, the cells were further treated with Tm (either 5 or 10 ug)/ml. After 18 hr. treatment with Tunicamycin, cells were photographed under phase-contrast with a Zeiss Axiovert 25 microscope for evidence of dead floating cells. Cells from the group treated solely with tunicamycin became strikingly hyper-refringent, detached from the substratum and floated in the media. […] To further evaluate a role for cystathionine in resisting the induction of cell death by tunicamycin, cell lysis was quantified by assaying lactate dehydrogenase (LDH) release. The enzyme activity was determined spectrophotometrically and the amount of enzyme leak was expressed as a percentage of the LDH activity observed in untreated control cells.

A further data set has as its system a23 cells. Put plainly: Tunicamycin-induced cell death, LDH release, transsulfuration negative a23 cells. It is filed as cell-based, Chinese hamster. To be noted: CBS and CGL negative, p<0.0001. From the text:
However, examination of a direct effect of exogenously added cystathionine is not currently possible in a whole animal model because of complications with the compounds solubility and rapid kinetics of its excretion. In order to investigate the direct effects of cystathionine against ER stress-induced cell death, the cytotoxicity of tunicamycin in the human embryonic kidney cell line 293AD and the human hepatoma cell line HepG2 in the presence and absence of both PPG and exogenously added cystathionine was examined. Preliminary experiments confirmed that both of these cell lines express both CBS and CGL (data not shown). In order to investigate the possible protective effects of cystathionine in the absence of transsulfuration, these experiments were repeated with the CBS and CGL negative Chinese hamster fibroblast line a23 (6).
Cells were seeded in triplicate at ˜75% confluence and pre-treated with either PPG) (5 mM), Cystathionine (1 mM) or with just complete media (DMEM, 10% FBS) as a control. […] To further evaluate a role for cystathionine in resisting the induction of cell death by tunicamycin, cell lysis was quantified by assaying lactate dehydrogenase (LDH) release. The enzyme activity was determined spectrophotometrically and the amount of enzyme leak was expressed as a percentage of the LDH activity observed in untreated control cells. […]

Data set [4] is described as follows: Solubility of cystathionine in water. The format is physicochemical.
Another data set relates to A293AD kidney cells. Put plainly: Thapsagargin-induced cell death, LDH release, A293AD kidney cells. It is filed as cell-based, human. The protocol:
It was previously shown that cystathionine can protect against ER stress induced cell death induced by the glycosylation inhibitor tunicamycin. In order to investigate if this protective effect was limited to tunicamycin, it was investigated whether cystathionine (1 mM) could protect A293AD kidney cells against ER stress induced cell death mediated by the calcium metabolism inhibitor compound thapsagargin (1 uM). Cell death was monitored by measuring LDH release into culture media. In order to investigate if cystathionine was simply blocking apoptosis, the effect of thapsagargin in the presence of the known apoptosis inhibitor Z-VAD-FMK was investigated. […] While it is not necessary to understand the mechanism of action, it is believed that 1.

As to `NC(CSCC[C@@H](N)C(=O)O)C(=O)O` (stereo partly drawn) [cystathionine, R—S-(2-Amino-2-carboxyethyl)-L-homocysteine], in the data set on HepG2 cells [1], the “protection against tunicamycin-induced cell death compared with 293AD cells” value is reported as “Essentially identical results”. In addition, the excretion in urine entry in data set [2] is “rapidly excreted in the urine”. In the data set with Grp78, Grp94, GADD153 (PPG 5 mM or cystathionine 5 mM, no tunicamycin), the “expression of Grp78, Grp94 and GADD15 in control cells” value is on record as “Neither PPG nor exogenously added cystathionine induced expression”. Besides, in the data set with Grp78, Grp94, GADD153 (tunicamycin 5 and 10 μg/ml), the “scale of induction of Grp78, Grp94 and GADD153 in the presence of tunicamycin” value is listed as “Nor did either of these treatments significantly alter the scale of induction”. For the same compound, in the data set with HepG2 cells [3], the “protection against cell death induced by thapsagargin” value is on record as “much greater protective effects” and the “protection against cell death induced by tunicamycin” value was “much greater protective effects”. Further, the “reduction in cell death (LDH release)” value with 293AD cells (293AD cells, tunicamycin 10 μg/ml 18 hr, 24 hr pre-treatment PPG 5 mM or cystathionine 1 mM, p<0.0001) turned out to be 27 fold. For the same compound, the “floating dead cells (phase-contrast)” value in the data set on 293AD cells (tunicamycin 18 hr after PPG or cystathionine pre-treatment) is “No floating dead cells were observed”. Moreover, the “reduction in tunicamycin induced cell death (LDH release)” value with a23 cells amounted to 16 fold. For the same compound, in data set [4], the solubility in water result is “relatively low solubility in water”. Moreover, in the data set with A293AD kidney cells (cystathionine 1 mM alone), the “cell death in cystathionine control” value is “No cell death was observed”. In the data set on A293AD kidney cells (cystathionine 1 mM, thapsagargin 1 uM), the “protection against thapsagargin induced cell death (LDH release)” value is on record as “highly significant protective effects”.

Turning to `COC(=O)C[C@H](NC(=O)[C@H](C)NC(=O)[C@@H](NC(=O)OCc1ccccc1)C(C)C)C(=O)CF` [Z-VAD-FMK] (Cbz-Val-Ala-Asp(OMe)-CH2F), in the data set with HepG2 cells [3], the “protection against cell death induced by thapsagargin” value is “only modest protection” and the “protection against cell death induced by tunicamycin” value is on record as “only modest protection”. Besides, in the data set with A293AD kidney cells (thapsagargin 1 uM), the “reduction of total cell death” value is recorded as “approximately 20%”.
